Assay [1] deals with T1, TWIK-1 (Homo sapiens, UniProt O00180).
T1 sequence (O00180 1-336): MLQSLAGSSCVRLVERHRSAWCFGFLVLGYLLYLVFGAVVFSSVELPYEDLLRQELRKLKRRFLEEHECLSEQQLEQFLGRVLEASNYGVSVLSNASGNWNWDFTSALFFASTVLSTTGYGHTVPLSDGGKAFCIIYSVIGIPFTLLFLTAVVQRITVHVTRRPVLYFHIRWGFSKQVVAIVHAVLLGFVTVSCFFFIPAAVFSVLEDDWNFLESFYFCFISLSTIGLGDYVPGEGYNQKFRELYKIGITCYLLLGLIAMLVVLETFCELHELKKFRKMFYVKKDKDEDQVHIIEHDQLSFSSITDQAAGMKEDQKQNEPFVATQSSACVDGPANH
The assay is described as follows: Imposed voltage (two-microelectrode voltage-clamp) recording of TWIK-1 K+ currents in Xenopus oocytes injected with TWIK-1 cRNA. The format is cell-based. On the set-up: expressed in transfected cells; host or cells: Xenopus laevis oocytes injected with cRNA transcribed from pEXO-TWIK-1. The following applies: for sensitivity of the TWIK-1 channel to K+ channel openers: 100 μM. How it is done:
A complementary RNA (cRNA) was transcribed of this construction and injected in the oocytes of X. laevis.
The TWIK-1 coding sequence was amplified using a low-error rate DNA polymerase (Pwo DNA pol, Boehringer) and subcloned in the plasmid pEXOii so as to yield pEXO-TWIK-1. Mutations were performed using the whole plasmid pEXO-TWIK-1 with a highly reliable PCR extension kit (Boehringer) and two adjacent primers. […] The product of the PCR was linearized by the enzyme BamHI and the cRNA were synthesized using a T7 RNA polymerase (Stratagene).
In a 0.3-ml perfusion chamber, a single oocyte was impaled on two standard glass microelectrodes (0.5–2.0 MW) charged with 3 M KCl and maintained under voltage-clamp with a Dagan TEV200 amplifier. […] Stimulation of the preparation, data acquisition and analyses were carried out with the pClamp program (Axon Instruments, USA).

The target of assay [2] is T1, TWIK-1. The assay is described as follows: Single channel patch-clamp recordings (attached and inside-out patch) of TWIK-1 in oocytes. Background: Patch clamp records ionic current or voltage across a cell membrane.
Protocol: The pipettes were filled with a strong K^+ solution (40 mM KCl, 100 mM of potassium methane sulfonate, 1.8 mM CaCl2, 2 m M MgCl2 and 5 mM HEPES adjusted to pH 7.4 with KOH). 100 μM of GdCl3 was added to the pipette solution to inhibit the action of the activated channels. The inside-out patches were perfused with a solution containing 140 m M KCl, 10 mM CaCl2, 5 mM HEPES adjusted to pH 7.2 with KOH and 5 mM EGTA added daily. The single channel signals were filtered at 3.5 kHz and analyzed with the Biopatch program (Bio-Logic, Grenoble, France).
Where [3] appears, read: read-out: inhibition of TWIK-1 currents.

As for `Nc1ccncc1` [4-aminopyridine], at TWIK-1 [1] (1 mM), the inhibition at 1000 µM is < 10%.

`Nc1ncnc2c1nc(Cl)n2[C@@H]1O[C@@H]2COP(=O)(O)O[C@H]2[C@H]1O` [8-Cl-AMPc]: the “effect on the activity of TWIK-1” value on TWIK-1 [1] (300 μM) is “does not affect”. `CNc1ccc2oc(C[C@H]3O[C@@]4(CC[C@H]3C)O[C@H]([C@H](C)C(=O)c3ccc[nH]3)[C@H](C)C[C@H]4C)nc2c1C(=O)O` [A23187]: the “effect on the properties of the TWIK-1 channel” value on TWIK-1 [1] (1 μM, elevation of cytoplasmic Ca2+) is recorded as “without effect”.

`Nc1ncnc2c1ncn2[C@@H]1O[C@H](COP(=O)(O)OP(=O)(O)OP(=O)(O)O)[C@@H](O)[C@H]1O` [ATP]: at TWIK-1 [2] (excised patch perfused with 10 mM), the “effect on the activity of the TWIK-1 channel” value is on record as “does not induce any effect”. With `[Ba+2]` [Ba^2+], on TWIK-1 [1] (Xenopus oocytes, +30 mV depolarization from HP -80 mV, read-out: IC50 of inhibition of the K+ currents of TWIK-1), the IC50 is 100 µM.

Turning to `O=C=O` [CO2], the “sensitivity of channel activity to acidification of the internal solution” value at TWIK-1 [2] (after excision of the patch, bubbling of CO2) was “insensitive”. The “reduction in the TWIK-1 currents (of control amplitude)” value at TWIK-1 [1] (intracellular acidification by superfusion with CO2-enriched solution) is “greater than 95%”.

For the compound `O=[N+]([O-])c1ccc(O)c([N+](=O)[O-])c1` [DNP, dinitrophenol], the “reduction in the TWIK-1 currents (of control amplitude)” value at TWIK-1 [1] (intracellular acidification by DNP, 1 mM) is 80%.

On to `CCCCCCCCCC(=O)O[C@@H]1[C@@H](C)[C@@]2(O)[C@@H](C=C(CO)C[C@@]3(O)C(=O)C(C)=C[C@@H]23)[C@@H]2C(C)(C)[C@]12OC(=O)CCCCCCCCC` [PDA, 4α-phorbol-12, 13 didecanoate], for which the “effect on the TWIK-1 currents” value at TWIK-1 [1] (1 μM) was “has no effect”.

Regarding `CCCCCCCCCCCCCC(=O)O[C@@H]1[C@@H](C)[C@@]2(O)[C@@H](C=C(CO)C[C@]3(O)C(=O)C(C)=C[C@@H]23)[C@@H]2C(C)(C)[C@]12OC(C)=O` [PMA, phorbol-12 myristate acetate], the “channels revealed in an attached patch initially expressing a single channel” value at TWIK-1 [2] (attached patch, 30 nM PMA, +60 mV) was “at least five channels”. Further, the “effect on the TWIK-1 currents” value at TWIK-1 [1] (30 nM, perfusion 10 minutes) is given as “increases the TWIK-1 currents”. `CC[N+](CC)(CC)CC` [TEA]: the “inhibition of TWIK-1 currents” value against TWIK-1 [1] (20 mM) came to 30%.

With `CCCCc1oc2ccccc2c1C(=O)c1cc(I)c(OCCN(CC)CC)c(I)c1` [amiodarone], at TWIK-1 [1] (setting [3]), the inhibition at 100 µM was < 10%. Consider `CC(C)C[C@@H]1NC(=O)[C@H](C)NC(=O)[C@H]([C@@H](C)O)NC(=O)[C@H](CCC(=O)O)NC(=O)[C@@H]2CCCN2C(=O)[C@H](C)NC(=O)[C@H](CCCCN)NC(=O)[C@@H]2CSSC[C@@H](C(=O)N[C@@H](CCC(N)=O)C(=O)N[C@@H](CCC(N)=O)C(=O)N[C@@H](Cc3cnc[nH]3)C(N)=O)NC(=O)[C@H](CCCNC(=N)N)NC(=O)[C@H](CCCNC(=N)N)NC(=O)[C@H](C)NC(=O)[C@H](CSSC[C@H](N)C(=O)N[C@@H](CC(N)=O)C(=O)N2)NC1=O` [apamin], for which, on TWIK-1 [1] (setting [3]), the inhibition at 0.3 µM was < 10%. For `CCCCCCC[N+](CC)(CC)CCCCc1ccc(Cl)cc1` [clofilium], the inhibition at 30 µM at TWIK-1 [1] is < 10%. With `CC1(C)Oc2ccc(C#N)cc2C(N2CCCC2=O)C1O` (stereo not drawn) [cromakaline], the “sensitivity of the TWIK-1 channel to K+ channel openers” value on TWIK-1 [1] is listed as “not sensitive”. As for `COc1ccc(Cl)cc1C(=O)NCCc1ccc(S(=O)(=O)NC(=O)NC2CCCCC2)cc1` [glibenclamide], the inhibition at 30 µM against TWIK-1 [1] is < 10%. Regarding `CC(N/C(=N\C#N)Nc1ccncc1)C(C)(C)C` (stereo not drawn) [pinacidil], at TWIK-1 [1], the “sensitivity of the TWIK-1 channel to K+ channel openers” value is “not sensitive”.

As usually defined, the inhibition is the relative decrease from the control value, in per cent. Broadly, the IC50 is the concentration that inhibits the measured activity by half.

(Values after US7067625B1, “Isolated TWIK-1 potassium channel proteins” (Centre National de la Recherche Scientifique - CNRS, priority 1996, dated 2006).)
